Laboratory results from patent US6756368B1, “Use of cobalt chelates for treating or preventing virus infection” (The Trustees of Columbia University in the City of New York, priority 1999, dated 2004).
“Also recorded” adds a separate entry of the source.

Columns and labels:
[1] = tested on: HSV-1; details: in vivo; cited from earlier work
[2] = tested on: HSV-1; format: cell-based, HSV-1 Glasgow strain 17
[3] = tested on: Ad-CMV-null; experiment: Fluorescence focus assay, AdCMV-null on 293T cells; format: cell-based, adenovirus
Protocol: A549 or 293 cell monolayers were infected with Ad2 or Ad-CMV-null at 0.1 fluorescence focus units (FFUs) per cell for 2 h in 2% BCS DMEM in the presence and absence of 50 μg/ml CTC-96. At 29 h postinfection the plates were washed twice with PBS and fixed with methanol for 4 min at room temperature. Cells were washed twice with PBS, incubated in 500 μl 1:100 rabbit polyclonal anti-adenovirus serum in PBS for 30 min at room temperature and washed with PBS. Plates were then incubated in 500 μl 1:40 goat anti-rabbit IgG conjugated FITC in PBS. Foci were visualized using a Leitz Dialux microscope with an optical system for the selective visualization of FITC and then counted.
293T cells were plated on 35 mm dishes. Cells should be @5×10^6 cells/plate.
293T Cells were infected with AdCMV-null @ moi=0.1 (i.e. 0.1 FFU/cell)
virus was diluted in D2 media +/− 50 μg/ml CTC96 D2=2% serum DMEM
Plates were overlaid with 2.5 ml D2 +/− 50 μg/ml CTC96 and incub. @37° C. for 28 h (total)

[4] = tested on: HSV-1 and 2; details: cited from earlier work
[5] = tested on: influenza virus; experiment: Influenza virus plaque assay on MDCK cells; format: cell-based, influenza virus strain PR8; details: magnitude not quantifiable
[6] = tested on: HSV-1; experiment: HSV-1 DNA replication in the presence of drug (Southern/slot blot); format: cell-based, HSV-1 Glasgow strain 17
Protocol: (i) DNA preparation. Vero cells infected with MOI of 5 were infected and maintained in the presence and absence of 50 μg/ml CTC-96. Infected cells were harvested by freezing (−80° C.) at the indicated times postinfection. Total infected cell DNA was extracted as described (54).
(ii) Slot blot analysis. Slot blot analysis was performed as previously described (55). Briefly, equal amounts of nuclear or cytoplasmic infected cell DNAs were blotted onto GeneScreen Plus using a MINIFOLD II Slot Blot System (Schleicher and Schuell, Keene, N.H.) and cross-linked with a Stratalinker 2400 (Stratagene, La Jolla, Calif.) using UV-irradiation. A 4.5 kB SalI-DdeI fragment from the α4 gene of HSV-1 which had been labeled with [α-32P]dCTP (NEN Life Sciences Products, Boston, Mass.) by random priming (Boehringer Mannheim, Indianapolis, Ind.) was hybridized to the nuclear and cytoplasmic DNAs and washed as specified by the manufacturer. Bands were visualized using autoradiography.
A series of experiments were initiated to determine the point in the replication cycle where CTC-96 acts. Our first study examined the effects of drug on replication of virus DNA. Cells were infected at an moi of 5 in the presence of the absence of drug and harvested by trypsinization at 1 and 9 hr post infection. Virus DNA was extracted from cells by selective salt precipitation and the amount of virus-specific DNA was assayed after transfer to a nitrocellulose membrane by Southern blot hybridization using a phophorimager to quantitate signal.
Cells were infected and at various intervals drug was added and left on the infected cell cultures until 24 hr pi. At this time samples were harvested and DNA extracted and analyzed as described above. […] By 12 hr post infection the bulk of DNA replication is complete as there is only a small difference between the hybridization signal generated in an untreated 24 hr sample when compared with a sample treated at 12 hr and analyzed at 24 hr post infection (FIG. 13).

[7] = tested on: 293T cells; experiment: Cytotoxic effect of drug on 293T cells; format: cell-based; details: 50 μg/ml, no virus
Protocol: 2 plates of cells were incub. In D2 media +50 μg/ml CTC96 (to see cytotoxic effect of drug on 293T cells)
Plates containing 293T cells +or − 50 μg/lm CTC96 were examined
plates containing 293T cells +or − CTC96 were examined

[8] = tested on: HSV-1; experiment: Fractionation and in situ localization of virus DNA; format: cell-based, HSV-1 Glasgow strain 17
[9] = tested on: HSV-1; experiment: Accumulation of virus-specified proteins (Western blot); format: cell-based, HSV-1 Glasgow strain 17
Protocol: Protein preparation and western blot analysis were performed as previously described (54). Briefly, at the indicated times the infected cells were collected by centrifugation, resuspended in 1.5×SDS-PAGE sample buffer, and boiled for 10 min. The proteins were separated by SDS-PAGE and electrophorectically transferred to nitrocellulose membranes. Immunodetection of proteins was performed using the following antibodies: ICP0, rabbit polyclonal antibody CLU7 (54); ICP27, rabbit polyclonal antibody CLU38 (54); glycoprotein B (gB), rabbit polyclonal antibody R69 (provided by T. Kristie, National Institute of Allergy and Infectious Diseases) [Zhang, et al. 1991]; and _TIF, rabbit polyclonal antibody anti-VP16 (Clontech Laboratories Inc., Palo Alto, Calif.). The secondary antibodies used were goat anti-rabbit and goat anti-mouse IgG conjugated to horseradish peroxidase (Kirkegaard and Perry Laboratories, Inc., Gaithersburg, Md.). Immunoblots were developed as previously described (55).
Accumulation of Virus-Specified Proteins in the Presence of Drug. Failure to efficiently replicate virus DNA could result from a specific block of replication per se or because virus-specified gene expression is affected by drug. To address this issue cells were infected with HSV-1 at an moi of 5, 50 μg/ml of drug was either added at time 0, 1 hr pi or not added and at intervals post infection the infected cells were harvested and proteins were extracted and assayed for the presence of virus specified polypeptides by Western blot. […] The residual reactivity with ∝-TIF in the sample treated at T=0 results from protein associated with the infecting virions. There is no increase in the accumulation of this protein during the course of infection. It is not possible to exclude the possibility that virus never enters these cells and that the ∝-TIF that is detected results from cell associated virus.

[10] = tested on: Hela cells; details: 100 μg/ml, 2 days
[11] = tested on: VZV; experiment: VZV plaque formation; format: cell-based; details: data not shown
[12] = tested on: HSV-1; experiment: Fluorescence dequenching fusion assay with R18 labeled HSV-1; format: cell-based, HSV-1 Glasgow strain 17; details: 50 μg/ml

CC(/C=C(/C)[O-])=NCCN=C(C)/C=C(/C)[O-].Cc1ncc[nH]1.Cc1ncc[nH]1.[Br-].[Co+3] [CTC-96]
effect on HSV-1 keratitis in the rabbit eye model [1]: reduce the corneal surface level of HSV-1 and facilitate the recovery from dendritic keratitis; also recorded: most potent inhibitory effect | syncytia formation by a syncytia forming virus ([2]; CTC-96 added at 1 or 10 hpi): unable to form syncytia | cell-to-cell spread (multi-celled foci) ([2]; CTC-96 added at 8 hpi): unable to form multi-celled foci | adenovirus foci ([3]; 50 μg/ml, 293T cells, AdCMV-null moi 0.1, 28 h): NO FOCI ON EITHER PLATE | % Inhibition ([3]; Ad-CMV-null, 293T, 50 μg/ml of CTC-96, fluorescence focus assay): 100% | HSV-1 production in tissue culture [4]: effective in inhibiting HSV-1 production | rank among the CTC compounds against HSV ([4]; comparison of several CTC complexes): least cytotoxic and most effective of the CTC compounds; also recorded: most potent inhibitor of HSV-1 in tissue culture and in the rabbit eye model | effect on influenza virus infection [5]: positive virus inhibitory effect; also recorded: effective against influenza virus infection | virus DNA associated with infected cells at 1 hr post infection, versus no drug ([6]; 50 μg/ml from onset, harvest 1 hpi): no detectable difference; also recorded: equivalent amount of virus DNA | virus DNA replication on temporal addition of drug ([6]; drug added at various times post infection, harvest 24 hr pi): increasingly more virus DNA replication as drug is added at later times post infection; also recorded: the amount of virus DNA replication increased | increase in accumulation of virus DNA from 1 to 9 hr post infection ([6]; drug treated, moi 5): barely a two-fold increase | cells rounded (CPE) ([7]; examined after fixation at 28 h): at least 50% | cells off of plate ([7]; examined after staining): 50% | remaining cells rounded up (CPE) ([7]; examined after staining): 50% | nuclear accumulation of 3H labeled HSV-1 DNA (autoradiography) [8]: prevented the nuclear accumulation | virus DNA in nuclear and cytoplasmic fractions [8]: very little detectable virus DNA in either fraction; also recorded: no significant increase in nuclear associated HSV-1 specific DNA | accumulation of virus-specified proteins ([9]; 50 μg/ml added 1 hr pi / after initiation of infection): only a small effect; also recorded: little or no effect | accumulation of gB (early) and α-TIF (late) ([9]; 50 μg/ml added at time 0): no measurable accumulation | synthesis of ICP0 and ICP27 (immediate early) ([9]; 50 μg/ml added at time 0): little if any synthesis | accumulation of virus proteins of all kinetic classes ([9]; 50 μg/ml present from the initiation of infection): prevented the accumulation of gene products from all kinetic classes; also recorded: prevents synthesis of all kinetic classes of virus proteins | state of the HeLa cells [10]: dead | VZV plaque formation [11]: inhibition of VZV plaque formation | fusion of the virus envelope with the plasma membrane [12]: prevented HSV-1 fusion to the cell; also recorded: inhibits the fusion of the virion envelope with the plasma membrane; also recorded: inhibited | fluorescence dequenching of R18 ([12]; up to 40 min post-warming): significantly dampened
